{"source": "paper PMC12259270", "about": "“Sensory neuron–expressed FGF13 controls nociceptive signaling in diabetic neuropathy models” (The Journal of Clinical Investigation, 2025)", "key": {"[1]": {"settings": "mouse, in vivo"}, "[2]": {"system": "C57BL/6 mice", "test": "Thermal hypersensitivity induced by intrathecal AAV2-FGF13-GFP (Hargreaves)", "format": "in vivo, mouse", "protocol": "Next, the in vivo PW164 strategy was applied to test ZL192 activity in mice that received i.t. injection (L4-L6) of either AAV2-shCTRL or AAV2-shFGF13 viral particles (10 μL; Figure 6B).\nExperiments were performed on 6- to 12-week-old male C57BL/6 mice (The Jackson Laboratory, Bar Harbor, ME) housed in the AAALAC-accredited facility at the University of Texas Medical Branch. Mice were group-housed with up to 5 mice per cage on a 12-to-12-hour light–dark cycle and had access to water and food ad libitum. All protocols were approved by the Institutional Animal Care and Use Committee (IACUC) at the University of Texas Medical Branch and in accordance with the National Institutes of Health (NIH) guidelines.\nPW164 and ZL192 were dissolved in DMSO and saline in a ratio of 1:10. 0.1% capsaicin (10% ethanol, 10% Tween-20 in saline; Sigma-Aldrich). All the compounds were injected at the center of the hind paw. The control group received a DMSO-saline mixture. 0.1% capsaicin was injected at the center of the hind paw and then PW164 (0.07 mg/ml) or DMSO was intradermally administered at the site of capsaicin injection Capsaicin was prepared from 1% (wt/vol) capsaicin stock solution dissolved in 100% ethanol, and 0.1% of diluted stock was made using tween-80 and saline solution at a 1:1:8 ratio. Bupivacaine was prepared from a 1:2 dilution with sterile 0.9% saline and locally injected in the center of the paw at 7 mg/ml.\nAAV2 viral particles packaged by the University of North Carolina Gene Therapy Core Facility (viral titer ranging […]\nBefore intrathecal injections in the lumbar region, mice were maintained in an anesthetizing box with 2% isoflurane to induce unconsciousness. […]\nMechanical sensitivity was assessed using von Frey filaments (VFF 0.1g and 1.0 g force) in mice that were either naïve or received intraplantar ([…].) injection of capsaicin. […]"}}, "note": "Residues, ends and D or L forms follow the SMILES beside them. *: point of attachment. Cbz = O=C(OCc1ccccc1)*; OtBu = CC(C)(C)O*", "data": [{"smiles": "COC(=O)[C@@H](NC(=O)[C@H](CCC(=O)OC(C)(C)C)NC(=O)[C@H](CC(C)C)NC(=O)[C@@H]1CCCN1C(=O)OCc1ccccc1)C(C)C", "note": "[PW164] (Cbz-PLE(OtBu)V-OMe)", "values": [{"measurement": "brain/plasma ratio", "setting": "[1]", "value": 0}, {"measurement": "volume of distribution (Vz)", "setting": "[1]", "value": "3.8 ± 0.71", "unit": "L/kg"}, {"measurement": "Tmax", "setting": "[1]; 15 mg/kg", "value": 0.083}, {"measurement": "duration of rescue in AAV2-FGF13-GFP mice", "setting": "[2]; PW164 5 μL, 0.7 mg/mL", "value": "up to 2.5 hours"}, {"measurement": "thermal hypersensitivity in AAV2-FGF13-GFP mice", "setting": "[2]; bupivacaine 7 mg/mL (5 μL), Suppl Fig 15B", "value": "Complete recovery"}, {"measurement": "thermal hypersensitivity in AAV2-FGF13-GFP mice", "setting": "[2]; day 68, PW164 5 μL, 0.7 mg/mL", "value": "partial rescue"}]}]}
